Experimental data taken from patent US7045516B1, “Benzoxazole derivatives and drugs containing the same as the active ingredient” (Koichi Shudo, priority 1998, dated 2006).
Where two headings read alike, the source gives them in different places.

Experiments:
5-HT3 receptor = target: T1, 5-HT3 receptor (Cavia porcellus, UniProt O70212); experiment: Test for 5-HT3 receptor activating action and antagonism, guinea pig ileum longitudinal muscle contraction; format: cell-based; settings: for inhibition at 10 µM: inhibitory ratio of contraction by 10 μM 5-HT in sample treated beforehand with 10 μM compound, guinea pig ileum longitudinal muscle; for EC50: negative logarithm of molar concentration giving 50% maximum contraction, read-out: Activating action pD2 (converted); for Activating action i.a.: ratio of maximum contraction by compound relative to maximum contraction with 10 μM 5-HT (defined as 1)
T1 construct: From ileum of Hartley male guinea pigs (500 g to 800 g) longitudinal muscle samples of about 20 mm were prepared; from tissue; host or cells: guinea pig ileum longitudinal muscle
T1 sequence (O70212 20-490): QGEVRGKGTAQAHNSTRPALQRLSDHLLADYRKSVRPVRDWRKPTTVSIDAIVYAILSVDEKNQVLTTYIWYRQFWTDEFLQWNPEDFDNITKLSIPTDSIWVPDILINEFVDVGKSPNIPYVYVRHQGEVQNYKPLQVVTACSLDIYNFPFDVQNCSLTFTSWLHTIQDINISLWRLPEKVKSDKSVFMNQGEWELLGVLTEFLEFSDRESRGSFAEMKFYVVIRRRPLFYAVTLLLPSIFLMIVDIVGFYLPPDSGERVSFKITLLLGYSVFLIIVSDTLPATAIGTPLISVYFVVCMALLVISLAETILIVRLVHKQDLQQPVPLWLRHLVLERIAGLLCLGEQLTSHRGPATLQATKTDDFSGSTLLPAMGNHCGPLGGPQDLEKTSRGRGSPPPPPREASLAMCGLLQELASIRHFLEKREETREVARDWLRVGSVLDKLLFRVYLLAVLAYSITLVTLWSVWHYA
Experimental: From ileum of Hartley male guinea pigs (500 g to 800 g) longitudinal muscle samples of about 20 mm were prepared. The samples were suspended at a resting tension of about 0.5 g in Magnus tubes, and isometric contraction reaction was measured. The samples were treated beforehand twice with 0.3 μM of 5-HT for 1 hour to desensitize the 5-HT4 receptors, and then given with 5-HT at a concentration of 0.1 to 30 μM to examine dose-dependent contraction reaction via the 5-HT3 receptors. […] The index of the 5-HT3 receptor activating action, i.a., is represented as a ratio of the maximum reaction obtained by each compound relative to the maximum contraction reaction obtained with 10 μM of 5-HT, which is defined to be 1. The index of strength of binding with the 5-HT3 receptor, pD2, is represented with a negative logarithmic value of a concentration (molar concentration) that gave 50% maximum contraction reaction for each compound. As for the antagonistic activity of each compound against the 5-HT3 receptor, inhibitory ratio was calculated, which represents a ratio of contraction obtained by applying 10 μM of 5-HT to a sample treated beforehand with 10 μM of each compound relative to the contraction obtained by applying 10 μM of 5-HT to an untreated sample.

[1] = tested on: large bowel transportation ability of normal mice; experiment: Effect on large bowel transportation ability of normal mice (glass bead excretion); format: in vivo, mouse; settings: ddY male mice, bead inserted after 30 minutes
Experimental: G. et al. [Drug Dev. Res., 9, 241-247, (1986)] was determined as follows. Each test compound was orally administered to 5- to 7-week old ddY male mice starved for about 4 hours. […] After the insertion of the glass bead, time (second) from the insertion to excretion of the bead from the anus was measured, and the time was used as an index of large bowel transportation ability. The test was performed by using groups of mice each consisting of 9 to 11 mice, and all of the procedures were performed under no anesthesia.

[2] = tested on: rat diarrhea under restriction stress; experiment: Inhibitory action for rat diarrhea under restriction stress; format: in vivo; settings: oral, 30 min before restraint, male Wistar rats, 3 hours, nonlinear least square method
Experimental: L. Williams et al. [GASTROENTEROLOGY, 94, 611–621 (1988)] was determined as follows, and the results were analyzed by the nonlinear least square method. 8-Week old male Wistar rats were starved from the evening of the day before the test. Each test compound was orally administered to the rats. After 30 minutes, the rats were constrained by binding of their fore-limbs and hind-limbs with wires. The rats were left in individual gages on white sheets under luminescent lamps for 3 hours. […] The test was performed with groups of rats each consisting of 8 rats.

Reverse mutation test = experiment: Reverse mutation test
Experimental: A reverse mutagenicity test was performed using the compound of Example 1 (b) of the present specification, hydrochloride of 5,7-dimethyl-2-(1-piperazinyl)benzoxazole (C), hydrochloride of 5-chloro-7-methyl-2-(4-methyl-1-piperazinyl)benzoxazole (D), and hydrochloride of 5-chloro-7-methyl-2-(4-methyl-1-homopiperazinyl) benzoxazole (E) (compounds disclosed in Japanese Patent Publication (KOKAI) No. 10-29987/1998), and the compound described in Reference Example 4 of the present specification, i.e., hydrochloride of 5-chloro-7-methyl-2-(1-piperazinyl) benzoxazole (F) according to the method of T. Matsushima et al. (Noropoth K. H., Springer, Berlin-Heidelberg-New York, “Short-Term Test Systems For Detecting Carcinogens”, pp. 273–285, 1980) referred by the guideline 471 of ORGANIZATION FOR ECONOMIC CO-OPERATION AND DEVELOPMENT.

[3] = Metabolic activity in human liver, in vitro system with S9 fraction; format: in vitro ADME; settings: 50 μmol/L test compound, 1 mg/mL human liver S9, NADPH production system, 37 °C, 15 minutes
Experimental: The test was performed in an in vitro system utilizing human liver S9 fraction in the presence of an NADPH production system described below. A reaction mixture of a total volume of 125 μL containing components at given final concentrations was prepared (50 μmol/L of test compound, 6 mmol/L of MgCl2.6H2O, 1 mmol/L of β-NADP^+, 10 mmol/L of glucose-6-phosphate (G-6-P), 0.7 U/mL of G-6-P dehydrogenase, 100 mmol/L of potassium phosphate (pH 7.4), 0.1 mmol/L of EDTANa2, and 1 mg/mL of human liver S9), and incubated at 37 C.° for 15 minutes. The reaction was stopped by the addition of 125 μL of N,N-dimethylformamide containing a substance for internal standard. The reaction mixture was centrifuged (2,000×g, 10 minutes), and the supernatant was subjected to HPLC analysis to determine the concentration of unchanged substance. Consumed amount was calculated from the concentration of unchanged substance, and the metabolic rate was represented as activity per unit amount of protein.

[4] = method of Matsushima et al., OECD guideline 471

| Compound | inhibition at 10 µM (5-HT3 receptor) [%] | EC50 (5-HT3 receptor) [nM] | Activating action i.a. (5-HT3 receptor) | also measured |
| --- | --- | --- | --- | --- |
| Cc1cc(C)c2oc(N3CCN(C)CC3)nc2c1 [B, 5,7-dimethyl-2-(4-methyl-1-piperazinyl) benzoxazole, reference compound] |  | 479 | 0.62 |  |
| Cc1cc(Cl)cc2nc(N3CCNCC3)oc12 [F, 5-chloro-7-methyl-2-(1-piperazinyl)benzoxazole, reference compound] | 90 | 27.5 | 0.14 |  |
| Cc1cc(Cl)cc2nc(N3CCN(C)CC3)oc12 [D, 5-chloro-7-methyl-2-(4-methyl-1-piperazinyl)benzoxazole, reference compound] | 94 | 162 | 0.27 |  |
| Cc1cc(Cl)cc2nc(N3CCCN(C)CC3)oc12.Cl [Hydrochloride of E, hydrochloride of 5-chloro-7-methyl-2-(4-methyl-1-homopiperazinyl)benzoxazole] |  |  |  | time from insertion to excretion of glass bead ([1]; dose 3 mg/kg oral): 271.91 s; time from insertion to excretion of glass bead ([1]; dose 10 mg/kg oral): 318.95 s; time from insertion to excretion of glass bead ([1]; dose 30 mg/kg oral): 248.56 s; ED50 value [2]: 0.0041 mg/kg; reverse mutagenicity (Reverse mutation test): negative |
| Cc1cc(Cl)cc2nc(N3CCNCC3)oc12.Cl [hydrochloride of Compound F, hydrochloride of 5-chloro-7-methyl-2-(1-piperazinyl) benzoxazole] |  |  |  | reverse mutagenicity (Reverse mutation test; [4]): positive |
| Cc1cc(Cl)cc2nc(N3CCN(C)CC3)oc12.Cl [Hydrochloride of D, hydrochloride of 5-chloro-7-methyl-2-(4-methyl-1-piperazinyl) benzoxazole] |  |  |  | Metabolic activity [3]: 0.87 nmol/min/mg protein; reverse mutagenicity (Reverse mutation test; [4]): negative |
| Cc1cc(Cl)cc2nc(N3CCCNCC3)oc12 [Example 1 (a), 5-Chloro-2-(1-homopiperazinyl)-7-methylbenzoxazole] | 95 | 33.1 | 0.12 |  |
| Cc1cc(C)c2oc(N3CCNCC3)nc2c1 [C, 5,7-dimethyl-2-(1-piperazinyl)benzoxazole, reference compound] | 91 | 70.8 | 0.12 |  |
| CN1C2CCCC1CC(NC(=O)c1nn(C)c3ccccc13)C2 (stereo not drawn) [G, Granisetron] |  |  |  | time from insertion to excretion of glass bead ([1]; dose 3 mg/kg oral): 206.44 s; time from insertion to excretion of glass bead ([1]; dose 10 mg/kg oral): 258.47 s; time from insertion to excretion of glass bead ([1]; dose 30 mg/kg oral): 475.93 s; ED50 ([2]; Rattus norvegicus): 0.025 mg/kg |
| c1ccc2oc(N3CCCNCC3)nc2c1 [A, 2-(1-homopiperazinyl)benzoxazole, reference compound] |  | 1700 | 0.32 |  |

Further lines, with some results ahead:

| inhibition at 10 µM (5-HT3 receptor) [%] | EC50 (5-HT3 receptor) [nM] | Activating action i.a. (5-HT3 receptor) | Compound | also measured |
| --- | --- | --- | --- | --- |
| 83 | 2000 | 0.31 | CC(C)(C)OC(=O)Nc1cc(Cl)cc2nc(N3CCCNCC3)oc12 [Example 7, 7-(tert-Butyloxycarbonylamino)-5-chloro-2-(1-homopiperazinyl)benzoxazole] |  |
| 46 | 3390 | 0.13 | CS(=O)(=O)Nc1cc(Cl)cc2nc(N3CCCNCC3)oc12.Cl [Example 14, 5-Chloro-7-methanesulfonylamino-2-(1-homopiperazinyl) benzoxazole hydrochloride] |  |
| 89 | 17.8 |  | CCc1cc(Cl)cc2nc(N3CCCNCC3)oc12 [Example 4, 5-Chloro-7-ethyl-2-(1-homopiperazinyl) benzoxazole] |  |
| 15 | 5620 | 0.10 | CC(C)C(=O)Nc1cc(Cl)cc2nc(N3CCCNCC3)oc12.Cl [Example 16, 5-Chloro-7-isobutyrylamino-2-(1-homopiperazinyl) benzoxazole hydrochloride] |  |
| 97 | 56.2 | 0.13 | Clc1cc(Cl)c2oc(N3CCCNCC3)nc2c1 [Example 9, 5,7-Dichloro-2-(1-homopiperazinyl) benzoxazole] |  |
| 96 | 56.2 | 0.09 | Cc1c(Cl)cc2nc(N3CCCNCC3)oc2c1Cl [Example 10, 5,7-Dichloro-2-(1-homopiperazinyl)-6-methylbenzoxazole] |  |
| 89 | 35.5 | 0.14 | Cc1c(Cl)cc2nc(N3CCCNCC3)oc2c1C [Example 11, 5-Chloro-2-(1-homopiperazinyl)-6,7-dimethylbenzoxazole] |  |
| 88 | 191 | 0.08 | Cc1cc2oc(N3CCCNCC3)nc2cc1Cl [Example 3, 5-Chloro-2-(1-homopiperazinyl)-6-methylbenzoxazole] |  |
| 83 | 437 | 0.55 | Cl.Nc1cc(Cl)cc2nc(N3CCCNCC3)oc12 [Example 8, 7-Amino-5-chloro-2-(1-homopiperazinyl) benzoxazole hydrochloride] |  |
| 88 | 295 | 0.36 | COc1cc(Cl)cc2nc(N3CCCNCC3)oc12 [Example 2, 5-Chloro-2-(1-homopiperazinyl)-7-methoxybenzoxazole] |  |
| 98 | 21.4 | 0.17 | Cc1cc(Cl)cc2nc(N3CCCN(C)CC3)oc12 [E, 5-chloro-7-methyl-2-(4-methyl-1-homopiperazinyl) benzoxazole, reference compound] |  |
| 90 | 3980 | 0.35 | CC(=O)Nc1cc(Cl)cc2nc(N3CCCNCC3)oc12 [Example 6, 7-Acetamino-5-chloro-2-(1-homopiperazinyl)benzoxazole] |  |
| 88 | 191 | 0.05 | Clc1cc(NCc2ccccc2)c2oc(N3CCCNCC3)nc2c1 [Example 12, 7-(Benzylamino)-5-chloro-2-(1-homopiperazinyl) benzoxazole] |  |
